Reference: patent US20240270762A1, “PENICILLIN-BINDING PROTEIN INHIBITORS” (priority 2021, published 2024)

What was measured:
[1] = system: B. thailandensis ATCC 700388; test: microbe, parasite or virus in culture; type: cell-based; conditions: Burkholderia thailandensis, ATCC700388, read-out: Minimum inhibitory concentration (MIC), B. thailandensis ATCC 700388
[2] = system: B. humptydooensis ATCC BAA-2767; test: microbe, parasite or virus in culture; type: cell-based; conditions: Burkholderia humptydooensis, ATCCBAA2767, read-out: Minimum inhibitory concentration (MIC), B. humptydooensis ATCC BAA-2767
[3] = target: A. baumannii PBP2 (Acinetobacter baumannii, UniProt D0C8Z9); test: Bocillin-FL competition binding via gel filtration, A. baumannii PBP2
A. baumannii PBP2, sequence (D0C8Z9 whole entry): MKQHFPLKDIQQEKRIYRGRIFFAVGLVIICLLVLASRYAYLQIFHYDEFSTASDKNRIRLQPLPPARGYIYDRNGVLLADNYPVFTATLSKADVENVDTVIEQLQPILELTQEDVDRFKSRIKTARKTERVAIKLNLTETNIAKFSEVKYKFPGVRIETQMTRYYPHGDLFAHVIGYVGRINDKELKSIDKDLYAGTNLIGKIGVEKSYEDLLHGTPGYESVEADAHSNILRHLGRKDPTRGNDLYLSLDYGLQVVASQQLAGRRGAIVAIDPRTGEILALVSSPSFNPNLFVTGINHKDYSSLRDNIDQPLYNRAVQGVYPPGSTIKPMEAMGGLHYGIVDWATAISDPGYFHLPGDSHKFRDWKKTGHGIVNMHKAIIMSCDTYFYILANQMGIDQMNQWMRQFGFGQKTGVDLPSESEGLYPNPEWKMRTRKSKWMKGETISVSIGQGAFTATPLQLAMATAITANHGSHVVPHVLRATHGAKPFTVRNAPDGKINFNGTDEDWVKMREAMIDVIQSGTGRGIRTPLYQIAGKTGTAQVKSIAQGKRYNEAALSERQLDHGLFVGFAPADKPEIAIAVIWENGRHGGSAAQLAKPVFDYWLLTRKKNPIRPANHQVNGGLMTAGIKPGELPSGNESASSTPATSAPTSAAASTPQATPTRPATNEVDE
Method: (§1) Affinity to A. baumannii PBP1a and PBP2 was assessed a competitive equilibrium binding assay using Bocillin-FL as the reporter molecule. Enzyme was pre-incubated with increasing concentrations of inhibitors, prior to addition of Bocillin and further incubation for 15 minutes. PBP bound with Bocillin-FL was separated by gel filtration using 96-well Zeba Spin size exclusion plates, and the fluorescence measured. The inhibitor affinity (reported as the EC50) was determined by plotting the fraction of PBP bound with Bocillin-FL at each inhibitor concentration against the inhibitor concentration, and fitting the data to the following equation:
(§2) [formula] • where y is the fraction bound at a given inhibitor concentration, ymin is the fraction bound when the enzyme is completely inactivated, ymax is the maximum (uninhibited) fraction bound, n is the Hill coefficient, and x is the inhibitor concentration.

[4] = target: T1, A. baumannii PBP1a (Acinetobacter baumannii, UniProt A0ABX6CK30); test: Bocillin-FL competition binding via gel filtration, A. baumannii PBP1a; conditions: competition binding assay using Bocillin-FL via gel filtration; read-out: A. baumannii PBP1a Potency
T1 sequence (A0ABX6CK30 1-851): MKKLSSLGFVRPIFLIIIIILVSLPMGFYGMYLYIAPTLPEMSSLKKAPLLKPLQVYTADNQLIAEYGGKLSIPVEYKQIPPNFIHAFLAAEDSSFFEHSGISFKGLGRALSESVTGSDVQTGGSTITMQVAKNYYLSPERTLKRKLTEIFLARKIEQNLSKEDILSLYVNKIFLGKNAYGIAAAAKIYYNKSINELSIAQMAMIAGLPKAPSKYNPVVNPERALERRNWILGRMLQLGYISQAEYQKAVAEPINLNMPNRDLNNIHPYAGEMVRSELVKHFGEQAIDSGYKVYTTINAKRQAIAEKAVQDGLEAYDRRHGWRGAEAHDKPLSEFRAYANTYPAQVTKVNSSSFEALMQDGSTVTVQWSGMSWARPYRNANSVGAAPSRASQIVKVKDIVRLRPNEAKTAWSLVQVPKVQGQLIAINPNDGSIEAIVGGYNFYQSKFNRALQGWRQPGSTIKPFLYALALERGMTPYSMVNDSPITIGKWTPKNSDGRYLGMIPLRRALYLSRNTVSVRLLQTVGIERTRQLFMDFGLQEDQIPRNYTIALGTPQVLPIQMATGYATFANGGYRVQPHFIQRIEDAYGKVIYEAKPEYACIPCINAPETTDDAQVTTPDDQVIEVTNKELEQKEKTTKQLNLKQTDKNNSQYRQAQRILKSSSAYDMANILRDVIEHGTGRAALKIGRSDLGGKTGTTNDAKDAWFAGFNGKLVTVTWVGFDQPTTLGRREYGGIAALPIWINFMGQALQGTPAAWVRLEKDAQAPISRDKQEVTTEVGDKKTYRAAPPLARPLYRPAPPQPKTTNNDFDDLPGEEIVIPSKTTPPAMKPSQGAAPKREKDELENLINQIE
Method: as §1, §2

Compound: O=C(O)c1c(F)ccc2c1OB(O)[C@@H](NC(=O)C(NC(=O)N1CCN(C3CCN(S(=O)(=O)c4cc(O)cc(O)c4)CC3)C1=O)c1cc(F)c(O)c(O)c1Cl)C2 (stereo partly drawn) [Example 600, (3R)-3-(2-(2-chloro-5-fluoro-3,4-dihydroxyphenyl)-2-(3-(1-((3,5-dihydroxyphenyl)sulfonyl)piperidin-4-yl)-2-oxoimidazolidine-1-carboxamido)acetamido)-7-fluoro-2-hydroxy-3,4-dihydro-2H-benzo[e][1,2]oxaborinine-8-carboxylic acid]
- MIC [1]: > 128 µg/mL
- MIC [2]: > 128 µg/mL
- EC50 [3]: < 10 µM
- EC50 [4]: < 10 µM

Compound: O=C(O)c1c(F)ccc2c1OB(O)[C@@H](NC(=O)C(NC(=O)N1CCN(C3CCN(Cc4ccc(F)c(O)c4)CC3)C1=O)c1cc(F)c(O)c(O)c1Cl)C2 (single isomer, unassigned) [Example 606]
- MIC [1]: < 1 µg/mL
- MIC [2]: < 1 µg/mL
- EC50 [3]: 10 to 50 µM
- EC50 [4]: < 10 µM

Compound: O=C(O)c1c(F)ccc2c1OB(O)[C@@H](NC(=O)[C@H](NC(=O)N1CCN(C3CCN(Cc4cc(O)cc(F)c4)CC3)C1=O)c1cc(F)c(O)c(O)c1Cl)C2 (single isomer, unassigned) [Example 607]
- MIC [1]: < 1 µg/mL
- MIC [2]: < 1 µg/mL
- EC50 [3]: 10 to 50 µM
- EC50 [4]: < 10 µM

Compound: O=C(O)c1c(F)ccc2c1OB(O)[C@@H](NC(=O)[C@H](NC(=O)N1CCN(C3CCN(Cc4cc(O)ccc4F)CC3)C1=O)c1cc(F)c(O)c(O)c1Cl)C2 (single isomer, unassigned) [Example 608]
- MIC [1]: < 1 µg/mL
- MIC [2]: < 1 µg/mL
- EC50 [3]: 10 to 50 µM
- EC50 [4]: < 10 µM

Compound: NCc1cccc(CN2CCC(N3CCN(C(=O)N[C@@H](C(=O)N[C@H]4Cc5ccc(F)c(C(=O)O)c5OB4O)c4cc(F)c(O)c(O)c4Cl)C3=O)CC2)c1 (single isomer, unassigned) [Example 613]
- MIC [1]: < 1 µg/mL
- MIC [2]: < 1 µg/mL
- EC50 [3]: 10 to 50 µM
- EC50 [4]: 10 to 50 µM

Compound: O=C(O)c1c(F)ccc2c1OB(O)[C@@H](NC(=O)C(NC(=O)N1CCN(C3CCN(Cc4ccc(O)cc4F)CC3)C1=O)c1cc(F)c(O)c(O)c1Cl)C2 (single isomer, unassigned) [Example 611]
- MIC [1]: < 1 µg/mL
- MIC [2]: < 1 µg/mL
- EC50 [3]: 10 to 50 µM
- EC50 [4]: < 10 µM
